Consider two compounds from US9889183B2, “PKC activators and anticoagulant in regimen for treating stroke” (BLANCHETTE ROCKEFELLER NEUROSCIENCES INSTITUTE, priority 2010, dated 2018).

Molecules are shown by their SMILES.

One assay deals with T1, PKCγ (Homo sapiens, UniProt P05129).
T1 construct: purchased Calbiochem
The assay is described as follows: PKC isozyme specificity, PKCγ. In kind it is biochemical. The following applies: 50-100 μM; data not shown. On the procedure: (§1) Protein kinase C assay. Rat hippocampal cells were cultured and scraped in 0.2 ml homogenization buffer (20 mM Tris-HCl, pH 7.4, 50 mM NaF, 1 μg/ml leupeptin, and 0.1 mM PMSF) and homogenized by sonication a Marsonix microprobe sonicator (5 sec, 10 W). To measure PKC, 10 μl of cell homogenate or purified PKC isozyme (purchased from Calbiochem) was incubated for 15 min at 37° C. in the presence of 10 μM histones, 4.89 mM CaCl2, 1.2 μg/μl phosphatidyl-L-serine, 0.18 μg/μl 1,2-dioctanoyl-sn-glycerol, 10 mM MgCl2, 20 mM HEPES (pH 7.4), 0.8 mM EDTA, 4 mM EGTA, 4% glycerol, 8 μg/ml aprotinin, 8 μg/ml leupeptin, and 2 mM benzamidine. […][^γ32P]ATP was added and ^32P-phosphoprotein formation was measured by adsorption onto phosphocellulose as described previously. Nelson and Alkon, J. Neurochemistry (1995), vol. 65, pp. 2350-2357. For measurements of activation by BR-101 (DCP-LA) and similar compounds. PKC activity was measured in the absence of diacylglycerol and phosphatidylserine and PKC δ, ε, η, and μ were measured in the absence of added EGTA and CaCl2, as described by Kanno et al. (J. Lipid Res. 2006, vol. 47, pp. 1146-1150). […]
(§2) To determine their PKC isozyme specificity, fatty acid derivatives were preincubated with purified PKC for five minutes and the PKC activity was measured radiometrically.

The next assay has as its system PKC in primary neurons. Kind of assay: PKC activity over time in rat hippocampal primary neurons. In kind it is cell-based. The note with it: only observed in primary neurons. The procedure:
(§3) Cell culture. Rat hippocampal H19-7/IGF-IR cells (ATCC, Manassas, Va.) were plated onto poly-L-lysine coated plates and grown at 35° C. in DMEM/10% FCS for several days until about 50% coverage was obtained. The cells were then induced to differentiate into a neuronal phenotype by replacing the medium with 5 ml N2 medium containing 10 ng/ml basic fibroblast growth factor at 39° C. and grown in T-75 flasks at 37° C. Human SH-SY5Y neuroblastoma cells (ATCC) were cultured in 45% F12K/45% MEM/10% FCS. Mouse N2A neuroblastoma cells were cultured in DMEM/10% FCS without glutamine. Rat hippocampal neurons from 18-day-old embryonic Sprague Dawley rat brains were plated on 12- or 96-well plates coated with poly-D-lysine (Sigma-Aldrich, St. Louis, Mo.) in B-27 neurobasal medium containing 0.5 mM glutamine and 25 μM glutamate (Invitrogen, Carlsbad, Calif.) and cultured for three days in the medium without glutamate. The neuronal cells were grown under 5% CO2 in an incubator maintained at 37° C. for 14 days.
Protein kinase C assay. […] 0.5 Ci[^γ32P]ATP was added and ^32P-phosphoprotein formation was measured by adsorption onto phosphocellulose as described previously. […] PKC activity was measured in the absence of diacylglycerol and phosphatidylserine and PKC δ, ε, η, and μ were measured in the absence of added EGTA and CaCl2, as described by Kanno et al. (J. Lipid Res. 2006, vol. 47, pp. 1146-1150). […]

The test system of a further assay is other PKC isoforms. Kind of assay: PKC isozyme specificity, other PKC isoforms. Format: biochemical. The following applies: data not shown. On the procedure:
as §1, §2

For the next assay, the target named is T2, PKCε (Homo sapiens, UniProt Q02156).
T2 construct: purchased Calbiochem
T2 sequence (Q02156 1-737): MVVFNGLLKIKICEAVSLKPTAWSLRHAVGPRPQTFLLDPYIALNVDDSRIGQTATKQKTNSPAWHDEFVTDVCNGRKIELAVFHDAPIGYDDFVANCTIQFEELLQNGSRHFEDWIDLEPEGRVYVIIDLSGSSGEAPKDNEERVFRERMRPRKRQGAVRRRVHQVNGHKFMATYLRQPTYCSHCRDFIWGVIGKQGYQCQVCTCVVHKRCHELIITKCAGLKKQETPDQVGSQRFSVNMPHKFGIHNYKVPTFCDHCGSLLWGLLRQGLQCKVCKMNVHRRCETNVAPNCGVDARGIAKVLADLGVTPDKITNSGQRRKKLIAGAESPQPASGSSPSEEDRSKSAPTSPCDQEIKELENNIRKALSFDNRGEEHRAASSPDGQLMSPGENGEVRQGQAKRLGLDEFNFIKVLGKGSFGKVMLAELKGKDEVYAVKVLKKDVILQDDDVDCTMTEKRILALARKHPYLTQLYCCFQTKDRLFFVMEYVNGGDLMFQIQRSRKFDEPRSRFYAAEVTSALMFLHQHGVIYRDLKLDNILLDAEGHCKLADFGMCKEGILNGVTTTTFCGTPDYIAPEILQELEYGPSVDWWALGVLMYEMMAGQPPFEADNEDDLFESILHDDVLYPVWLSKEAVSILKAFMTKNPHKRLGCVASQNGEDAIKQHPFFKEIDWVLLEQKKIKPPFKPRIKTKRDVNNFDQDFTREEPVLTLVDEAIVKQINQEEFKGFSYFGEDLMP
The following applies: cited from earlier work.

In assay [1] the test system is global cerebral ischemia/hypoxia in rats. The assay is described as follows: Global ischemia model, water maze (Examples 10-11). Format: in vivo, rat.
Method: Rats (male, Wistar, 200-225 g) were randomly divided into 6 groups (8 each) and housed for 1 week before experimentation. […] The global ischemia model used to induce vascular memory impairment was two-vessel occlusion combined with a short term systemic hypoxia. Ligation of the bilateral common carotid arteries was performed under anesthesia (pentobarbital, 60 mg/kg, i.p.). After a one-week recovery from the surgery, rats were exposed to 14-min hypoxia (5% oxygen in a glass jar). Control rats (sham operated and vehicle controls) were subjected to the same incision to isolate both common carotid arteries and to 14-min air (in the glass jar). Body temperature was kept at 37-37.5° C. using a heating light source during the surgical procedure and until the animals were fully recovered.
For assay [2] the test system is unchanged. Kind of assay: Global cerebral ischemia/hypoxia, spatial learning and memory (Example 12). In kind it is in vivo, rat. The procedure:
Global cerebral ischemialhypoxia was induced in male Wistar rats (225-250 g) by permanently occluding the bilateral common carotid arteries, combined with about 14 minutes of low oxygen (about 5%). […] Spatial learning (2 trials/day for 4 days) and memory (a probe test of 1 minute, 24 hours after the last trial) task was performed 9 days after the last dose. Overall, there was a significant difference between the groups (F3,255=31.856, p<0.001) and groups x trials (F21,255=1.648, p<0.05). Global cerebral ischemia impaired the spatial learning (ischemial vs. sham-operated F1,127=[…]).

Another assay concerns α-secretase. The following applies: 10 pM; human fibroblasts; cited from earlier work.
For assay [3], the system named is PKC in H19-7/IGF-IR cells. The assay is described as follows: PKC activity over time in rat H19-7/IGF-IR hippocampal cells. Format: cell-based. On the procedure:
as §3
Protein kinase C assay. Rat hippocampal cells were cultured and scraped in 0.2 ml homogenization buffer (20 mM Tris-HCl, pH 7.4, 50 mM NaF, 1 μg/ml leupeptin, and 0.1 mM PMSF) and homogenized by sonication a Marsonix microprobe sonicator (5 sec, 10 W). To measure PKC, 10 μl of cell homogenate or purified PKC isozyme (purchased from Calbiochem) was incubated for 15 min at 37° C. in the presence of 10 μM histones, 4.89 mM CaCl2, 1.2 μg/μl phosphatidyl-L-serine, 0.18 μg/μl 1,2-dioctanoyl-sn-glycerol, 10 mM MgCl2, 20 mM HEPES (pH 7.4), 0.8 mM EDTA, 4 mM EGTA, 4% glycerol, 8 μg/ml aprotinin, 8 μg/ml leupeptin, and 2 mM benzamidine. […][^γ32P]ATP was added and ^32P-phosphoprotein formation was measured by adsorption onto phosphocellulose as described previously. Nelson and Alkon, J. Neurochemistry (1995), vol. 65, pp. 2350-2357. For measurements of activation by BR-101 (DCP-LA) and similar compounds. PKC activity was measured in the absence of diacylglycerol and phosphatidylserine and PKC δ, ε, η, and μ were measured in the absence of added EGTA and CaCl2, as described by Kanno et al. (J. Lipid Res. 2006, vol. 47, pp. 1146-1150). Low concentrations of Ca^2+ are used because high Ca^2+ interacts with the PKC phosphatidylserine binding site and prevents activation. For measurements of bryostatin activation, 1,2-diacylglycerol was omitted unless otherwise stated.
PKC activators that bind to the diacylglycerol binding site, including bryostatin, gnidimacrin, and phorbol esters, produce a transient activation of PKC activity, followed by a prolonged downregulation. Nelson et al., Trends in Biochem. Sci. (2009), vol. 34, pp. 136-145. This was confirmed in cultured rat hippocampal cells. Incubation of rat H19-7/IGF-IR cells with (0.04 nM and 0.2 nM) bryostatin produced a 2-fold activation that lasted 30 min, followed by a 20% downregulation that returned to baseline by 24 hours (data not shown). […] This sustained activation was only observed in primary neurons.

Consider `CCCCCC1CC1CC1CC1CCCCCCCC(=O)O` (centres unmarked) [BR-101, 2-[(2-pentylcyclopropyl)methyl]cyclopropaneoctanoic acid], for which, on PKCγ, the “effect on PKCγ” value is given as “activated”. The “time PKC remained elevated” value in the assay on PKC in primary neurons is “at least four”. Further, in the assay on other PKC isoforms, the “effects on the other PKC isoforms” value is “relatively small effects”. Moreover, on PKCε, the “concentration of maximal effect, selective PKCε activation” value is given as 100 nM.
Take `CCC/C=C/C=C/C(=O)O[C@H]1/C(=C/C(=O)OC)C[C@H]2C[C@H]([C@@H](C)O)OC(=O)C[C@H](O)C[C@@H]3C[C@H](OC(C)=O)C(C)(C)[C@](O)(C[C@@H]4C/C(=C/C(=O)OC)C[C@H](/C=C/C(C)(C)[C@]1(O)O2)O4)O3` [Bryostatin-1, bryostatin-1]: in assay [1] (bryostatin-1 20 μg/m^2 i.v. 2 doses/week, 10 doses, MCDA 1.0 mg/kg i.p. daily 5 weeks, start 24 hours after hypoxia), the “water maze spatial learning, ischemic treated vs ischemic rats” value is given as “greatly improved the performance”. The “water maze spatial learning, drug-only vs control rats” value in assay [1] (non-ischemic rats, same regimens) was “no differences”. Besides, in assay [1] (same regimens), the “water maze spatial learning, ischemic treated vs control rats” value was “did not differ statistically”. In assay [2] (15 μg/m^2, ischemic rats), the “memory retention (target quadrant preference) after ischemia” value was “effectively restored memory retention”. Further, in assay [2] (15 μg/m^2, non-ischemic rats), the “spatial learning, Bryostatin-1 alone vs sham-operated” value is listed as “did not affect the learning” and the “target quadrant preference, Bryostatin-1 alone vs sham-operated” value is on record as “no significant effects”. Further, the “spatial learning impairment after ischemia” value in assay [2] (15 μg/m^2 tail vein, 2 doses/week, 10 doses, start about 24 hours after event, tested 9 days after last dose) is “restored”. Moreover, in the assay on α-secretase, the “increase of initial rate of α-secretase activity” value is given as 16 fold. Further, in assay [3] (0.04 nM and 0.2 nM), the “PKC downregulation following activation” value is listed as 20%, the “duration of PKC activation” value is given as 30 min and the “time of return of PKC to baseline” value was ≤ 24 h. The compound also yielded a PKC activation in assay [3] (0.04 nM and 0.2 nM, H19-7/IGF-IR cells) of 2 fold. In addition, the “PKC activity at 8 hours (downregulation)” value in assay [3] (treated cells, 8 hours, data not shown) is “at or near the baseline”.
